Target: T1, factor D (Homo sapiens, UniProt P00746)
T1 construct: made in house; host or cells: E. coli
Assay: factor D inhibition assay of Biological Example 2
Format: biochemical
Conditions: not given

T1 sequence (P00746 26-253): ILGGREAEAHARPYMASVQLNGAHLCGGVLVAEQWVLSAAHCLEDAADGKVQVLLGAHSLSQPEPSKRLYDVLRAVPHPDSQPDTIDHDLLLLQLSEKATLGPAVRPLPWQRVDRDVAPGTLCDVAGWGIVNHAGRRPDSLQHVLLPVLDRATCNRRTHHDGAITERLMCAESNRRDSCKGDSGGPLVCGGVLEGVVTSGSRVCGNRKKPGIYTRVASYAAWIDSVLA

SMILES	IC50 [nM]
C[C@@H](N)c1cccc(-c2cc(CNCC(F)(F)F)cc(COc3ccccc3CC(=O)O)c2)c1F [Example 285-B]	58
NCc1cccc(-c2cc(CNC(c3ccccc3)C(F)(F)F)cc(COc3ccccc3CC(=O)O)c2)c1 (stereo not shown) [Example 286-E, 2-(2-((3′-(aminomethyl)-5-(((2,2,2-trifluoro-1-phenylethyl)amino)methyl)-[1,1′-biphenyl]-3-yl)methoxy)phenyl)acetic acid]	6
N[C@H](CO)c1cccc(-c2cc(COc3ccccc3CC(=O)O)cc(C(=O)N[C@H]3CCOc4ccccc43)c2)c1 [Example 287-G, 2-(2-((3′-((S)-1-amino-2-hydroxyethyl)-5-((S)-chroman-4-ylcarbamoyl)-[1,1′-biphenyl]-3-yl)methoxy)phenyl)acetic acid]	37
CNCc1cccc(-c2cccc(COc3ccccc3CC(=O)O)c2)c1 [Example 288, 2-(2-((3′-((methylamino)methyl)-[1,1′-biphenyl]-3-yl)methoxy)phenyl)acetic acid]	3430
N#Cc1ccc(COc2ccccc2CC(=O)O)cc1-c1cccc(CN)c1 [Example 289, 2-(2-((3′-(aminomethyl)-6-cyano-[1,1′-biphenyl]-3-yl)methoxy)phenyl)acetic acid]	850
CC(C(=O)O)c1ccccc1OCc1cccc(-c2cccc(CN)c2)c1 (stereo not shown) [Example 290, 2-(2-((3′-(aminomethyl)-[1,1′-biphenyl]-3-yl)methoxy)phenyl)propanoic acid]	1670
NCc1cc(Cl)cc(-c2cccc(COc3ccccc3CC(=O)O)c2)c1 [Example 291, 2-(2-((3′-(aminomethyl)-5′-chloro-[1,1′-biphenyl]-3-yl)methoxy)phenyl)acetic acid]	190
Cc1cc(CN)cc(-c2cccc(COc3ccccc3CC(=O)O)c2)c1 [Example 292-B, 2-(2-((3′-(aminomethyl)-5′-methyl-[1,1′-biphenyl]-3-yl)methoxy)phenyl)acetic acid]	70
CCc1ccc(CC(=O)O)c(OCc2cccc(-c3cccc(CN)c3)c2)c1 [Example 293, 2-(2-((3′-(aminomethyl)-[1,1′-biphenyl]-3-yl)methoxy)-4-ethylphenyl)acetic acid]	5
NCc1cccc(-c2cccc(COc3cc(C4CC4)ccc3CC(=O)O)c2)c1 [Example 294-A]	9
N#Cc1ccc(CC(=O)O)c(OCc2cccc(-c3cccc(CN)c3)c2)c1 [Example 294-B]	40
NCc1cccc(-c2cccc(COc3cc(C(N)=O)ccc3CC(=O)O)c2)c1 [Example 294-C]	10
CC(=O)NCc1ccc(CC(=O)O)c(OCc2cccc(-c3cccc(CN)c3)c2)c1 [Example 294-D]	10
CCNc1ccc(CC(=O)O)c(OCc2cccc(-c3cccc(CN)c3)c2)c1 [Example 294-E]	490
N#Cc1ccc(OCc2cccc(-c3cccc(CN)c3)c2)c(CC(=O)O)c1 [Example 294-F]	70
NCc1cccc(-c2cccc(COc3ccc(C(N)=O)cc3CC(=O)O)c2)c1 [Example 294-G]	4030
NCc1cccc(-c2cccc(COc3cc(CC4CC4)ccc3CC(=O)O)c2)c1 [Example 295-C, 2-(2-((3′-(aminomethyl)-[1,1′-biphenyl]-3-yl)methoxy)-4-(cyclopropylmethyl)phenyl)acetic acid]	9
CC(=O)NC(C(=O)O)c1ccccc1OCc1cccc(-c2cccc(CN)c2)c1 (stereo not shown) [Example 296, 2-acetamido-2-(2-((3′-(aminomethyl)-[1,1′-biphenyl]-3-yl)methoxy)phenyl)acetic acid]	2410

Target: T1, factor D
Assay: Human Complement Factor D ELISA Assay
Format: biochemical
Conditions: tested using the assay of Biological Example 1 (ELISA, Ba product quantified); read-out: activity against factor D

SMILES	IC50 [nM]
CC[N+]1=C(/C=C/C=C/C=C2/N(CCCCCC(=O)NC[C@@]3(F)C[C@@H](C(=O)NCc4cccc(Cl)c4F)N(C(=O)Nc4cn(C(N)=O)c5ccccc45)C3)c3ccc(S(=O)(=O)O)cc3C2(C)C)C(C)(C)c2cc(S(=O)(=O)O)ccc21 [Biological Example 2.2, 2-((1E,3E,5E)-5-(1-(6-((((3S,5S)-1-((1-carbamoyl-1H-indol-3-yl)carbamoyl)-5-((3-chloro-2-fluorobenzyl)carbamoyl)-3-fluoropyrrolidin-3-yl)methyl)amino)-6-oxohexyl)-3,3-dimethyl-5-sulfoindolin-2-ylidene)penta-1,3-dien-1-yl)-1-ethyl-3,3-dimethyl-5-sulfo-3H-indol-1-ium]	694

Reference: patent US20160145247A1, “Aminomethyl-Biaryl Derivatives Complement Factor D inhibitors and uses thereof” (NOVARTIS AG, priority 2013, published 2016)
